The text below walks through data of PubChem BioAssay (NCI).

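Following 48 hours of exposure in 96-well plates, responses at five concentrations were used to interpolate endpoints linearly. GI50 is the concentration that inhibits growth by half. The concentration for full growth arrest is given as TGI.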

What all share (experiment): inhibition of tumour cell growth, NCI panel, 48 h
The test system of assay [1] is NCI-H23 lung.
In assay [2] the test system is UACC-257 melanoma.
In assay [3] the test system is TK-10 renal.
Assay [4] deals with EKVX NSCLC.
Assay [5] relates to COLO 205 colon.
Assay [6] concerns SK-MEL-2 melanoma.
In assay [7] the test system is UACC-62 melanoma.
For assay [8], the system named is OVCAR-8 ovarian.
The test system of assay [9] is ACHN renal.

For `CN1c2ccccc2N(C(=O)c2ccc([N+](=O)[O-])cc2)C(CC(=O)O)c2cccn21` (stereo not given), the TGI in [1], in [2], in assay [3], in assay [4], in assay [5] and in assay [6] was over 100 µM each time. The TGI in assay [7], in assay [8] and in assay [9] was over 100 µM in each case.
For `Cn1c2c(c3ccccc31)CCN(CCCCN1CCCCC1)C2=O`, the TGI in [1], in [2], in assay [3], in assay [4], in [5] and in [6] was over 100 µM throughout. In addition, the TGI was 66 µM in assay [7], over 100 µM in assay [8] and over 100 µM in assay [9].
For `O=C(/C=C/c1cc(Cl)cc(Cl)c1O)c1cccc(O)c1`, the TGI is over 100 µM in [1]; over 100 µM in [2]; over 100 µM in [3]; over 100 µM in [4]; 32.7 µM in assay [5]; 61.7 µM in assay [6]. Besides, the TGI in assay [7], in [8] and in [9] was over 100 µM each time.
For `O=C(NCCCCCCCCCCCCNC(=O)c1cccc2ccccc12)c1cccc2ccccc12`, the TGI in assay [1] was over 100 µM; in assay [2], over 100 µM; in assay [3], over 87.1 µM; in assay [4], over 100 µM; in assay [5], over 100 µM; in assay [6] it was over 100 µM. Also, the TGI in assay [7], in [8] and in assay [9] was over 100 µM each time.
For `Cc1c(Cl)cccc1NC(=O)C(=O)C(C(=O)c1ccccc1-c1ccccc1)C1OC(=O)c2ccccc21` (stereo not given), the TGI is 30.3 µM in assay [1]; 46.8 µM in assay [2]; 57.6 µM in assay [3]; 59 µM in [4]; 39.7 µM in assay [5]; 32.6 µM in [6]. Further, the TGI was 37.3 µM in assay [7] and over 100 µM in [8].
Regarding `COC(=O)CCC(NC(=S)N/N=C(\C)c1cnc2ccccc2n1)C(=O)OC` (stereo not given), the TGI was over 100 µM in assay [1]; over 100 µM in assay [2]; over 100 µM in assay [3]; over 100 µM in [4]; 5.37 µM in [5]; over 100 µM in assay [6]. Besides, the TGI in assay [7] was 38.5 µM; in assay [8], over 100 µM; in [9] it was 89.2 µM.
As for `CN1C(=O)CCC1(O)C1C=CC=CC1` (stereo not given), the TGI in assay [1], in [2], in assay [3], in [5], in [7] and in assay [8] was over 100 µM in each case. Further, the TGI in [9] is over 100 µM.
With `COC(=O)C(C(=O)C(=O)Nc1c(C)cccc1C)c1cnc2ccccc2n1` (stereo not given), the TGI in assay [1], in [2], in assay [3], in assay [4], in [5] and in assay [6] was over 100 µM throughout. Moreover, the TGI in assay [7], in assay [8] and in assay [9] was over 100 µM throughout.
For `CN(C)C=Nc1ccn(CCO)c(=O)n1`, the TGI in assay [1], in assay [2], in [3], in assay [4], in assay [5] and in assay [6] was over 100 µM in each case. The TGI in assay [7], in [8] and in assay [9] was over 100 µM throughout.
Take `Cc1cc(NCCCCCCCCNc2cc(C)nc3cc(N)ccc23)c2ccc(N)cc2n1`: the TGI in assay [1] was 52.8 µM; in assay [2] it was 35.5 µM; in [3], over 100 µM; in assay [4] it was 61 µM; in assay [5], 31.2 µM; in assay [6], 40.4 µM. In addition, the TGI in [7] was 38.4 µM; in assay [8] it was 52.1 µM; in assay [9], over 100 µM.
Consider `CC(=O)OCC1OC(n2cc(F)c(=O)[nH]c2=O)C(NC(=O)N(CCCl)N=O)C(OC(C)=O)C1OC(C)=O` (stereo not given), for which the TGI in assay [1], in [2], in [3], in assay [5], in assay [7] and in [8] was over 100 µM throughout. Besides, in [9], the TGI was over 100 µM.
With `C/C(=C1/N=C(c2cc([N+](=O)[O-])ccc2Cl)N(c2cccc(C)c2)C1=O)c1cc2ccccc2oc1=O`, the TGI in assay [1] is over 100 µM; in assay [2] it was 77.3 µM; in assay [3], over 100 µM; in assay [4], over 100 µM; in assay [5], over 100 µM; in [6], over 100 µM. Moreover, the TGI in assay [7], in assay [8] and in assay [9] was over 100 µM throughout.
As to `CC1=Nc2ccccc2S/C1=C(/C)NNS(=O)(=O)c1ccc(C)cc1`, the TGI in [1], in [2], in [3], in assay [4], in assay [5] and in assay [6] was over 100 µM in each case. In addition, the TGI in assay [7], in assay [8] and in assay [9] was over 100 µM throughout.
`N.N.N.N.N.[Co+3].[I-].[N-]=[N+]=[N-]`: the GI50 in assay [1], in assay [2], in [3], in [4], in assay [5] and in assay [6] was over 100 µM each time. In addition, the GI50 in assay [7] is 89.7 µM; in [8] it was over 100 µM; in [9], over 100 µM. Further, the TGI in assay [1], in [2], in assay [3], in assay [4], in [5] and in [6] was over 100 µM throughout. Also, the TGI in [7], in assay [8] and in assay [9] was over 100 µM throughout.
